Values joined by “and” are separate entries in the source; they are usually repeats but may differ in a detail not shown here. Equal values may be shown once.
What was measured:
5α reductase (5αR) = target: T1, 5α reductase (5αR) (Canis lupus familiaris, UniProt A0A8I3NQ64); experiment: Inhibitor effect on 5α reductase of dog prostate extract (radio-chemical method); assay type: biochemical; details: 0.1 mM
T1 construct: raw extract of dog prostate; from tissue; host or cells: dog prostate, raw extract
T1 sequence (A0A8I3NQ64 1-254): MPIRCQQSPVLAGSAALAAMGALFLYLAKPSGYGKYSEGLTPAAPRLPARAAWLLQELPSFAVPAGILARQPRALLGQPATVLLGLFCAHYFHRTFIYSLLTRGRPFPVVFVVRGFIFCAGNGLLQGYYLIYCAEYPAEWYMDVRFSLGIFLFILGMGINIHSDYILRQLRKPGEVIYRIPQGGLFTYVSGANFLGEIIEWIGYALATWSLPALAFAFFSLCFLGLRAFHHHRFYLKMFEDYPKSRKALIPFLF
Text: It is known that enzymes of the type 5α reductase (5αR) transform testosterone into 17β-hydrosy-5α-androstan-3-one or […]. This reaction is crucial in the action of androgens. These enzymes are present in the keratinocytes of the epidermis, in the fibroblasts of the dermis, and in the sebaccous glands in particular.
Solutions of the product were created at five times the final concentration used in the reaction, in a citrate-phosphate buffer at 0.1 M and pH=5.6 (buffer used in the 5αR reaction). The 5αR reference inhibitor was finasteride (Chibro-Prosacar®, in 5 mg tablets), and tested at the concentration of 500 μg/ml after dilution in the citrate-phosphate buffer at 0.1 M.
The enzymatic extract used was a raw extract of dog prostate prepared in a tris buffer of 0.1 M/sucrose 20%, pH=7.5. The sample was calibrated in such a way as to transform approximately 0.1 pmole of testosterone with 50 μl of extract (being an arbitrary unit of the enzyme).
The mixtures were incubated for 4 hours at 37° C., then the testosterone and the derivatives formed were extracted by 500 μl of dichloromethane. The fraction of dichloromethane was drawn off, dried under a nitrogen flow, and chromatographed on silica in a dichloromethane/ethyl acetate/methanol system (proportions 85:15:3). The plates obtained were autoradiographed on Kodak MP® films.
The evaluation of the quantity of testosterone transformed was carried out after sectioning the products formed and counting them in liquid scintillation.

Propionibacterium acnes = experiment: microbe, parasite or virus in culture; assay type: cell-based; details: Cutibacterium acnes, 48 h, read-out: Factor of increase of the quantity of P. acnes
Description: (§1) Second In Vitro Test Establishing an Effect on Pathogenic and Non-pathogenic Flora
(§2) The effects of an oligosaccharide of a degree of polymerisation close to 10 according to the said first method, and of a chelate of this oligosaccharide+Zn, were evaluated on the non-pathogenic strain Micrococcus kristinae, the pathogenic strain Staphylococcus aureus, and the pathogenic strain Propionibacterium acnes. This latter strain is particularly involved in the irritations occurring in the course of cutaneous acne infections.
(§3) The bacteria are cultured in a saline medium (5.6 g/l of NaCl 2.812 g/l of KH2 PO4), containing pancreatic peptone (5.625 g/l) and extracts of heart/brain (9.843 g/l). The strains M. kristinae and S. aureus are cultured in an aerobic medium, and the strain P. acnes is cultured in an anaerobic medium, either in the presence of 5 g/l of glucose (traditional carbonaceous source) or in the presence of a product according to the invention (oligosaccharide of degree of polymerisation close to 10 alone, or this oligosaccharide forming a chelate with zinc), or in the presence of the medium alone (control cultures). The quantity of bacteria being cultured is evaluated after 48 hours of culturing by turbidimetry at 750 nm.

Staphylococcus aureus = experiment: microbe, parasite or virus in culture; assay type: cell-based; details: 48 h, read-out: Factor of increase of the quantity of S. aureus
Description: as §1, §2, §3

Micrococcus kristinae = experiment: microbe, parasite or virus in culture; assay type: cell-based; details: Rothia kristinae, 48 h, read-out: Factor of increase of the quantity of M. kristinae
Description: as §1, §2, §3

Mean (cpm total) (5α reductase (5αR)) [cpm] | Mean e - T (5α reductase (5αR)) [cpm] | inhibition at 100 µM (5α reductase (5αR)) [%] | cpm ASD (5α reductase (5αR); listed as F) | cpm DHT (5α reductase (5αR); listed as F) | cpm total (5α reductase (5αR); listed as F) | activity at 100 µM (5α reductase (5αR); pH 5.6, enzyme control = 100) [%] | Structure (SMILES) | fold induction at 5000 µg/mL (Propionibacterium acnes) | fold induction at 5000 µg/mL (Staphylococcus aureus) | fold induction at 5000 µg/mL (Micrococcus kristinae)
1080 | 647 | 85 | 880 cpm and 748 cpm and 647 cpm | 343 cpm and 262 cpm and 359 cpm | 1223 cpm and 1010 cpm and 1006 cpm | 15 | CC(C)(C)NC(=O)[C@H]1CC[C@H]2[C@@H]3CC[C@H]4NC(=O)C=C[C@]4(C)[C@H]3CC[C@]12C [finasteride] |  |  | 
 |  |  |  |  |  |  | O=C[C@H](O)[C@@H](O)[C@H](O)[C@H](O)CO [glucose] | 5.2 | 1.6 | 2.2

Source: patent US6207438A, “Method for preparing a product in particular for preventing and curing skin diseases, and resulting product” (priority 1998, dated 2001)
